In patent US20250034216A1, “STEREOSELECTIVE COVALENT LIGANDS FOR ONCOGENIC AND IMMUNOLOGICAL PROTEINS” (The Scripps Research Institute, priority 2021, published 2025):

Target: T1, PHF5A_C26 (Homo sapiens, UniProt O75533+Q7RTV0)
T1 construct: endogenous in cells
Assay: IA-DTB cysteine reactivity profiling
Format: binding
Method: Sample preparation: Cells (adherent: 15 cm dishes, suspension: 2 million cells/mL) were treated with electrophilic probes in situ for indicated times and concentrations, washed with ice-cold PBS, and flash frozen in liquid nitrogen. Cell pellets were lysed by sonication (8 pulses, 40% power) in 500 μL ice-cold PBS supplemented with cOmplete protease inhibitors (1 tablet/10 mL of PBS). Whole cell lysates protein content was measured using a standard DC protein assay (Bio-Rad) and 500 μL (2 mg/mL protein content) were treated with 5 μL of 10 mM 1A-DTB (in DMSO) for 1 h at ambient temperature with occasional vortexing. Samples were methanol-chloroform precipitated with the addition of 500 μL ice-cold MeOH and 200 μL CHCl3, vortexed, and centrifuged (10 min, 10,000 g). Without disrupting the protein disk, both top and bottom layers were aspirated and the protein disk was washed with 1 mL ice-cold MeOH and centrifuged (10 min, 10,000 g). The pellets were allowed to air dry, and then re-suspended in 90 μL buffer (9 M urea, 10 mM DTT, 50 mM TEAB pH 8.5). […]
Data processing: Cysteine engagement ratios (probe vs DMSO) were calculated for each peptide-spectra match by dividing each TMT reporter ion intensity by the average intensity for the channels corresponding to DMSO treatment. […]

T1 sequence (Q7RTV0 whole entry): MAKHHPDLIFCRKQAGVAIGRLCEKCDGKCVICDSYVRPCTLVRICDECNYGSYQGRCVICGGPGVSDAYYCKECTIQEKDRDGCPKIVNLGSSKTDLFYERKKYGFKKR
T1 sequence (O75533 whole entry): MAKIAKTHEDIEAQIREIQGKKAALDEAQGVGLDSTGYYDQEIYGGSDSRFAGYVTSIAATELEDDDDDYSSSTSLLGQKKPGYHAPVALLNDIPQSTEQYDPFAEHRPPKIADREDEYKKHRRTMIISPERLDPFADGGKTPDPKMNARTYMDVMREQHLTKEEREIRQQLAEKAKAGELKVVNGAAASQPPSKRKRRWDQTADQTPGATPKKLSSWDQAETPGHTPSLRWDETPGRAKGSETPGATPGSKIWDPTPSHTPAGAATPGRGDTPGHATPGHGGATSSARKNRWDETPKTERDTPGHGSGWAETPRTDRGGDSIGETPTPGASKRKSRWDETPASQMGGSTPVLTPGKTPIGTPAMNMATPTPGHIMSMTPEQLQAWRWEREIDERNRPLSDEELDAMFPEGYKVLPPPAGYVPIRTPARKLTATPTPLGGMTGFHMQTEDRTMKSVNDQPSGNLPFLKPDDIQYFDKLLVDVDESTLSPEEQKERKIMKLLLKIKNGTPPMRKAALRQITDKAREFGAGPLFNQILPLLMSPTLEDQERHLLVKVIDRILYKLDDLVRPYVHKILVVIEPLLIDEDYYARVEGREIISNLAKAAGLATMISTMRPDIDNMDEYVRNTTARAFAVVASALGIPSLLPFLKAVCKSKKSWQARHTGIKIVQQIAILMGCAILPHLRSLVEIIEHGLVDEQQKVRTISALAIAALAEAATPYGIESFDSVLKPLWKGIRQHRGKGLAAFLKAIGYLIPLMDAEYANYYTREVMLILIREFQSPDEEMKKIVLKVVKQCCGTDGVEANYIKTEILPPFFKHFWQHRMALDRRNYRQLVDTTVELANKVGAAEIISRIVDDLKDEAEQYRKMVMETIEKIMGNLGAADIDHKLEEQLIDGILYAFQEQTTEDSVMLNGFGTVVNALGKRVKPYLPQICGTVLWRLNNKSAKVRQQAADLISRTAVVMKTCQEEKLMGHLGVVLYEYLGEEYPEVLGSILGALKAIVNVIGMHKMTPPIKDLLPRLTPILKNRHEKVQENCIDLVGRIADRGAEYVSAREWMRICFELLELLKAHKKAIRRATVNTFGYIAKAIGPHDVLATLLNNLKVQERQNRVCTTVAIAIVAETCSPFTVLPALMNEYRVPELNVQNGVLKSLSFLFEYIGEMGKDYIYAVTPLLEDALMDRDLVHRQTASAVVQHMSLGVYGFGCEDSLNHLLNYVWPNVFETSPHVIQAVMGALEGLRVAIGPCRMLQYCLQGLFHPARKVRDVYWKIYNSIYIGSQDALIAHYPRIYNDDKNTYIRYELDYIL
T1 sequence (Q15393 whole entry partner): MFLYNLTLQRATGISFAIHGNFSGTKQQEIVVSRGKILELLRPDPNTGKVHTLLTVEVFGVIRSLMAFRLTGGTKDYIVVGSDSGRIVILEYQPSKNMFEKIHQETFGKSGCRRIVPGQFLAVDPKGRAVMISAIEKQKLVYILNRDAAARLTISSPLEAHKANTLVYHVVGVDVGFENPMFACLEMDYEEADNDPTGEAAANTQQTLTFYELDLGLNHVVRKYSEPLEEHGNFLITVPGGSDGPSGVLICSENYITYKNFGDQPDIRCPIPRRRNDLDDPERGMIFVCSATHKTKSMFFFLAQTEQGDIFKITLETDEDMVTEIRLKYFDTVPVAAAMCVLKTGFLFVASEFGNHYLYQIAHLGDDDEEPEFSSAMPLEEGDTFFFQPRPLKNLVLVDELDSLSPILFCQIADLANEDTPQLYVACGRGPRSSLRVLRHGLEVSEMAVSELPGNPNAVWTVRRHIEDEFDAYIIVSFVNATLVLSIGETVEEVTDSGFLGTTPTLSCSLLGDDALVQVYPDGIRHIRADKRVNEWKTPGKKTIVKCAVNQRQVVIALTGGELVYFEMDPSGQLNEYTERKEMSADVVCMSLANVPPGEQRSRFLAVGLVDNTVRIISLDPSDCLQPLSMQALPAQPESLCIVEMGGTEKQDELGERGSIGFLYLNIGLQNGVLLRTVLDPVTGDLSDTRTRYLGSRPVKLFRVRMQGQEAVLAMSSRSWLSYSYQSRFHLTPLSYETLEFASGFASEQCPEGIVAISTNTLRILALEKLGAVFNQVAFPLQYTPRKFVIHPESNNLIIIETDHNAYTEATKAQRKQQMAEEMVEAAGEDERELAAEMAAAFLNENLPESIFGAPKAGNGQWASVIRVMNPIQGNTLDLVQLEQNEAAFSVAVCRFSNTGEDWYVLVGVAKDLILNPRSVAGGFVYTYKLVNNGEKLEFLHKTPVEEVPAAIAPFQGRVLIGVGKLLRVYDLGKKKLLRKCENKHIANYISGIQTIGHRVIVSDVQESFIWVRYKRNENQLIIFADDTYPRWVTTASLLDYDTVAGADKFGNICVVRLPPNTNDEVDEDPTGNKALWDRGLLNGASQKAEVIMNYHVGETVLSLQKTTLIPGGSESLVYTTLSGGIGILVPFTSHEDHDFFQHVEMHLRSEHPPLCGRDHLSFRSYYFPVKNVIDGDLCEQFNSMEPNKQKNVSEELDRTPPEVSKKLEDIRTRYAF
T1 sequence (Q9BWJ5 whole entry partner): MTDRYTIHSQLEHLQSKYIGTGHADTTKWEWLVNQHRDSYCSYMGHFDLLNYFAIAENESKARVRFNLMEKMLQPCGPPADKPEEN

C=CC(=O)N1[C@H](c2ccc3c(c2)OCO3)c2[nH]c3ccccc3c2C[C@H]1C(=O)N1CCOCC1 [WX-02-23, 1-((1R,3S)-1-(benzo[d][1,3]dioxol-S-yl)-3-(morpholine-4-carbonyl)-1,3,4,9-tetrahydro-2H-pyrido [3,4-b]indol-2-yl)prop-2-en-1-one]
engagement of PHF5A_C26: did not engage
